Assay results taken from paper PMC6277767, “Broad and Region-Specific Impacts of the Synthetic Cannabinoid CP 55,940 in Adolescent and Adult Female Mouse Brains” (Frontiers in Molecular Neuroscience, 2018).

Test: CP 55,940 levels in eight brain regions 2 h after single i.p. 3 mg/kg injection (HPLC/MS/MS)
Format: in vivo, mouse
Conditions: for CP 55,940 level: 3mg/kg CP 55,940, mean
Method: The Bloomington Institutional Animal Care and Use Committee of Indiana University reviewed and approved the animal procedures. Female mice from the CD1 strain were utilized to match our study examining THC’s effects on the brain lipidome ([Leishman et al., 2018]). Mice were given a single i.p. injection of either 3 mg/kg CP or 1:1:18 cremophor:ethanol:saline vehicle (please refer to the section “3 mg/kg CP Is Relevant for Synthetic Cannabinoid Abuse and Has Stronger Effects on the Female Mouse Brain Lipidome During Adolescence” for a justification of dose and use of female mice). Three different age groups were given injections: PND 35 and PND 50 adolescents, and adult mice (PND 113). At least eight mice in each age group received CP and at least eight received vehicle. Matching the THC study time course ([Leishman et al., 2018]), mice were sacrificed via rapid decapitation 2 h after injection. Brains were immediately removed and flash-frozen in liquid nitrogen, and then stored at -80°C until dissections were performed. Brains were dissected on an ice-cold dissection plate into the following regions: STR, HIPP, CER, THAL, CTX, HYP, MID, and STEM. These abbreviations for these brain areas will be used exclusively when discussing the results generated by these specific dissections. Each dissected area was immediately placed in liquid nitrogen and then stored at -80°C until used for lipid extraction.
Tissue extracts were performed as previously described ([Bradshaw et al., 2006]; [Stuart et al., 2013]; [Raboune et al., 2014]; [Leishman et al., 2016a],[b], [2017], [2018]). First, samples were shock frozen in liquid nitrogen, weighed, and transferred to a centrifuge tube. The mass of the largest sample was multiplied by 50 to determine how many milliliters of HPLC-grade methanol (Fisher, Fair Lawn, NJ, United States) to add. Then, samples were spiked with 500 pmol deuterium-labeled NAGly (d8NAGly; Cayman Chemical, Ann Arbor, MI, United States). Samples were placed on ice in darkness for 2 h then individually homogenized and centrifuged at 19,000 × g for 20 min at 20°C. Supernatants were diluted with HPLC water (purified in house) to make a solution of 75% water, 25% supernatant. Lipids were partially purified on C18 solid phase extraction columns (Agilent, Palo Alto, CA, United States). A series of four elutions with 1.5 mL of 60%, 75%, 85%, and 100% methanol were collected ([Stuart et al., 2013]; [Leishman et al., 2016a],[b], [2018]).
As previously described ([Bradshaw et al., 2006]; [Tan et al., 2006]; [Smoum et al., 2010]; [Stuart et al., 2013]; [Tortoriello et al., 2013]; [Raboune et al., 2014]; [Leishman et al., 2016a],[b], [2017], [2018]), samples were analyzed using an Applied Biosystems API 3000 triple quadrupole mass spectrometer with electrospray ionization (Foster City, CA, United States). Using an Agilent XDB-C18 reversed phase analytical column and optimized mobile phase gradients, 20 μL from each elution were chromatographed. Two Shimadzu 10ADvp pumps (Columbia, MD, United States) provided the pressure for gradient elution. Mobile phase A: 20% methanol, 80% water (v/v) and 1 mM ammonium acetate (Sigma, St. Louis, MO, United States). Mobile phase B: 100% methanol, 1 mM ammonium acetate. Every method run began with 0% mobile phase B, reached 100% mobile phase B flowing at 0.2 mL/min, and gradually returned to 0% mobile phase B.
This screening library will be referred to as the lipidome when discussing data from this study. HPLC/MS/MS data were analyzed using Analyst software (Applied Biosystems) ([Bradshaw et al., 2006]; [Tan et al., 2006]; [Stuart et al., 2013]; [Tortoriello et al., 2013]; [Raboune et al., 2014]; [Leishman et al., 2016a],[b], [2017], [2018]). Chromatograms (Supplementary Figure 3) were generated by determining the retention time of analytes from the analytical column with a [M-1] or [M+1] parent peak and a fragmentation peak corresponding to the programmed values. […]

[1] = brainstem, PND 50, 3 mg/kg CP 55,940, one-way ANOVA p .000
[2] = cerebellum, PND 50, 3 mg/kg CP 55,940
[3] = cerebellum, adult, 3 mg/kg CP 55,940
[4] = cerebellum, PND 35, 3 mg/kg CP 55,940
[5] = cortex, PND 35, 3 mg/kg CP 55,940
[6] = hippocampus, PND 50, 3 mg/kg CP 55,940 vs Veh
[7] = hippocampus, adult, 3 mg/kg CP 55,940
[8] = hippocampus, PND 35, 3 mg/kg CP 55,940 vs vehicle
[9] = striatum, PND 50, 3mg/kg CP 55,940 vs Veh
[10] = striatum, adult, 3 mg/kg CP 55,940, one-way ANOVA p .000
[11] = striatum, PND 35, 3mg/kg CP 55,940
[12] = thalamus, PND 50, 3 mg/kg CP 55,940
[13] = thalamus, adult, 3 mg/kg CP 55,940
[14] = thalamus, PND 35, 3 mg/kg CP 55,940

CCCCCCC(C)(C)c1ccc([C@@H]2C[C@H](O)CC[C@H]2CCCO)c(O)c1 [CP 55,940]
CP 55,940 level, Mean (brainstem, PND 50, 3 mg/kg CP 55,940): 8.2E-11
CP 55,940 level, Direction (relative to Veh) [1]: ↑
CP 55,940 level, Magnitude (x Veh level) [1]: infinite
CP 55,940 level: Direction (relative to Veh) [2]: ↑
CP 55,940 level: Magnitude (x Veh level) [2]: infinite
CP 55,940 level, Mean (cerebellum, PND 50 female mice, 3 mg/kg CP 55,940): 7.57E-11
CP 55,940 level, Mean (cerebellum, WT adult female mice, 3mg/kg CP 55,940): 2.8E-10
CP 55,940 level: Direction (relative to Veh) [3]: ↑
CP 55,940 level: Magnitude (x Veh level) [3]: infinite
CP 55,940 level: Direction (relative to Veh) [4]: ↑
CP 55,940 level: Magnitude (x Veh level) [4]: infinite
CP 55,940 level, Mean (cerebellum, PND35 WT female mice, 3mg/kg CP 55,940): 7.22E-11
CP 55,940 level, Direction (relative to Veh) (cortex, PND 50, 3 mg/kg CP 55,940): ↑
CP 55,940 level, Magnitude (x Veh level) (cortex, PND 50, 3 mg/kg CP 55,940, ANOVA p .000): infinite
CP 55,940 level, Mean (cortex, PND 50 female mice, 3mg/kg CP 55,940): 8.61E-11
CP 55,940 level Direction (rel to Veh) [5]: ↑
CP 55,940 level, Magnitude (x Veh level) [5]: infinite
CP 55,940 level, Mean (cortex, PND 35 adolescent female mice, 3 mg/kg CP 55,940): 1.11E-10
CP 55,940 level, Direction (relative to Veh) [6]: ↑
CP 55,940 level, Magnitude (x Veh level) [6]: infinite
CP 55,940 level (hippocampus, PND 50 female mice): 1.23E-10
CP 55,940 level, Mean [7]: 2.68E-10
CP 55,940 level: Direction (relative to Veh) [7]: ↑
CP 55,940 level: Magnitude (x Veh level) [7]: infinite
CP 55,940 level: Direction [8]: ↑
CP 55,940 level: Magnitude [8]: infinite
CP 55,940 level, Mean (hippocampus, PND 35 WT female mice, 3mg/kg CP 55,940): 9.63E-11
CP 55,940 level, Direction (relative to Veh) (hypothalamus, PND 50, 3mg/kg CP 55,940): ↑
CP 55,940 level, Magnitude (x Veh level) (hypothalamus, PND 50, 3mg/kg CP 55,940, ANOVA p .000): infinite
CP 55,940 level, Mean (hypothalamus, PND 50 female mice, 3mg/kg CP 55,940): 4.38E-11
CP 55,940 level, Mean (hypothalamus, PND 35 adolescent female mice, 3 mg/kg): 5.31E-11
CP 55,940 level, Direction (relative to Veh) (midbrain, PND 50, 3mg/kg CP 55,940): ↑
CP 55,940 level, Magnitude (x Veh level) (midbrain, PND 50, 3mg/kg CP 55,940, ANOVA p .000): infinite
CP 55,940 level, Mean (midbrain, PND 50 female mice, 3mg/kg CP 55,940): 1.21E-10
CP 55,940 level, Mean (midbrain, PND 35 WT adolescent female mice, 3 mg/kg): 7.91E-11
CP 55,940 level, Direction (relative to Veh) [9]: ↑
CP 55,940 level, Magnitude (x Veh level) [9]: infinite
CP 55,940 level (striatum, PND 50 female mice): 5.87E-11
CP 55,940 level, Mean (striatum, adult, 3 mg/kg CP 55,940): 2.08E-10
CP 55,940 level, Direction (relative to Veh) [10]: ↑
CP 55,940 level, Magnitude (x Veh level) [10]: infinite
CP 55,940 level: Direction (relative to Veh) [11]: ↑
CP 55,940 level: Magnitude (x Veh level) [11]: infinite
CP 55,940 level: Direction (relative to Veh) [12]: ↑
CP 55,940 level: Magnitude (x Veh level) [12]: infinite
CP 55,940 level, Mean (thalamus, PND 50 female mice, 3 mg/kg CP 55,940): 9.93E-11
CP 55,940 level, Mean (thalamus, WT adult female mice, 3mg/kg CP 55,940): 2E-10
CP 55,940 level: Direction (relative to Veh) [13]: ↑
CP 55,940 level: Magnitude (x Veh level) [13]: infinite
CP 55,940 level, Direction (relative to Veh) [14]: ↑
CP 55,940 level, Magnitude (x Veh level) [14]: infinite
CP 55,940 level, Mean (thalamus, PND 35 adolescent female mice, 3 mg/kg CP 55,940): 8.87E-11
